Counter-ions that a name gives are not always drawn. Like-named read-outs stand apart in the source and are kept apart here.
Biological target: T1, β-catenin/BCL9 PPI (Homo sapiens, UniProt P35222)
T1 construct: Wild-type full-length β-catenin were cloned into a pET-28b vector carrying a C-terminal 6×histidine; made in house; host or cells: Escherichia coli BL21 DE3 (β-catenin); BCL9 peptide chemically synthesized
T1 sequence (P35222 1-781): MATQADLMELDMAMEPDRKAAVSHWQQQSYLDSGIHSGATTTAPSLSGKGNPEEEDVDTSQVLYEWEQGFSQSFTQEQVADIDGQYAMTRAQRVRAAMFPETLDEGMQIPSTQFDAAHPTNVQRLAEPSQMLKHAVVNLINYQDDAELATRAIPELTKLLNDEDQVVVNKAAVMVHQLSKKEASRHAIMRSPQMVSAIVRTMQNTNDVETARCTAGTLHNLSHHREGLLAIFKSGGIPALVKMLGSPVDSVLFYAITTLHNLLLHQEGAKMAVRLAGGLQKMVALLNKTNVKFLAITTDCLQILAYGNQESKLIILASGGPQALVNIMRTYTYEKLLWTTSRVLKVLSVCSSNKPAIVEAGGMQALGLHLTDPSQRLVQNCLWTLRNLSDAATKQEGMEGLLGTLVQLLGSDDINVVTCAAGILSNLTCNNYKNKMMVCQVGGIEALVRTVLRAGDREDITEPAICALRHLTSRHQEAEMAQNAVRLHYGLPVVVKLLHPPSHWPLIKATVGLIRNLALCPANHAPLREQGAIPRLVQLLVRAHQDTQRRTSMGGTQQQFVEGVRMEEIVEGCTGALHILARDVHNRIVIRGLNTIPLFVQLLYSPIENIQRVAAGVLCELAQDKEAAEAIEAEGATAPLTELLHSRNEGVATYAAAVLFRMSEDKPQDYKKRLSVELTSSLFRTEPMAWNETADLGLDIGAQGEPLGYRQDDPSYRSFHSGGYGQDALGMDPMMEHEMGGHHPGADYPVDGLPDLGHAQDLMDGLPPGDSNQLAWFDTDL
Experiment: AlphaScreen competitive inhibition assay of the β-catenin/BCL9 PPI
Format: binding
Conditions: mean ± SD, triplicate, Ki derived from IC50 (Nikolovska-Coleska method)
Method: AlphaScreen competitive inhibition assays. For the competitive inhibition assays of the β-catenin/BCL9 PPI, the negative control (equivalent to 0% inhibition) refers to 5.0 nM of biotinylated BCL9, 40 nM of His6-tagged β-catenin, and 10 μg/mL of donor and acceptor beads in a final volume of 25 μL assay buffer, but no tested inhibitor present. The positive control (equivalent to 100% inhibition) refers to 5.0 nM of biotinylated BCL9 and 10 μg/mL of donor and acceptor beads in a final volume of 25 μL assay buffer.
For the β-catenin/BCL9 assay, 5 nM of biotinylated BCL9 and 40 nM of His6-tagged β-catenin were incubated in assay buffer at 4° C. for 30 min. Different concentrations of the tested inhibitor were added and incubated in 20 μL assay buffer at 4° C. for another 1 h. All of the above assay plates were covered and gently mixed on an orbital shaker. The donor and acceptor beads were then added to the plates to a final concentration of 10 μg/mL in 25 μL assay buffer. The mixture was incubated for 1 h at 4° C. before detection. The IC50 value was determined by nonlinear least-square analysis of GraphPad Prism 5.0. The Ki values were derived from the IC50 values using a method reported by Nikolovska-Coleska et al (Nikolovska-Coleska, Z.; Wang, R.; Fang, X.; Pan, H.; Tomita, Y.; Li, P.; Roller, P. P.; Krajewski, K.; Saito, N. G.; Stuckey, J. A.; Wang, S. Development and optimization of a binding assay for the XIAP BIR3 domain using fluorescence polarization. Anal. Biochem. 2004, 332, 261-273). The assays were conducted under the conditions required by Nikolovska-Coleska et al.'s equation for determining the Ki values. All of the experiments were performed in triplicate. The results were expressed as mean±standard deviation.

[1] = Example 1 compounds, experiment 3, read-out: Ki (μM ± SD) experiment 3
[2] = Example 1 compounds, experiment 4, read-out: Ki (μM ± SD) experiment 4
[3] = Example 1 compounds, experiment 1, read-out: Ki (μM ± SD) experiment 1
[4] = Example 1 compounds, experiment 2, read-out: Ki (μM ± SD) experiment 2
[5] = Example 2 compounds, experiment 1, read-out: Ki (μM ± SD) experiment 1
[6] = Example 2 compounds, experiment 2, read-out: Ki (μM ± SD) experiment 2

Row | Structure (SMILES) | Ki [1] | Ki [2] | Ki [5] | further results
1 | CC(=O)Nc1cc(F)cc(C(=O)N2CCN(C(=O)c3ccc(O[C@H]4CCNC4)c(C4CCCCC4)c3)C(C(=O)NC3CCCCC3)C2)c1 (stereo partly drawn) [Compound 25, 4-(3-Acetamido-5-fluorobenzoyl)-N-cyclohexyl-1-(3-cyclohexyl-4-(((S)-pyrrolidin-3-yl)oxy)benzoyl) piperazine-2-carboxamide trifluoroacetate] | 390 ± 78 µM | > 1000 µM | – | –
2 | NCc1cn(-c2cc(F)cc(C(=O)N3CCN(C(=O)c4ccc(O[C@H]5CCNC5)c(C5CCC(C(F)(F)F)CC5)c4)CC3)c2)nn1 (stereo partly drawn) [Compound 31, (S)-(4-(3-(4-(aminomethyl)-1H-1,2,3-triazol-1-yl)-5-fluorobenzoyl)piperazin-1-yl) (4-(pyrrolidin-3-yloxy)-3-(4-(trifluoromethyl)cyclohexyl)phenyl) methanone ditrifluoroacetate] | – | – | – | Ki [3]: > 350 µM; Ki [4]: 610 ± 91 µM
3 | CN(C)Cc1cn(Cc2cc(F)cc(OC3CCN(C(=O)c4ccc(O[C@H]5CCNC5)c(C5CCCCC5)c4)CC3)c2)nn1 [Compound 4, (S)-(3-cyclohexyl-4-(pyrrolidin-3-yloxy)phenyl) (4-(3-((4-((dimethylamino)methyl)-1H-1,2,3-triazol-1-yl)methyl)-5-fluorophenoxy)piperidin-1-yl) methanone dihydrochloride] | – | – | 41.4 ± 4.33 µM | –
4 | O=C(c1ccc(O[C@H]2CCNC2)c(C2CCCCC2)c1)N1CCC(Oc2cc(F)cc(N3CCNCC3=O)c2)CC1 [Compound 2, (S)-1-(3-((1-(3-cyclohexyl-4-(pyrrolidin-3-yloxy)benzoyl)piperidin-4-yl)oxy)-5-fluorophenyl) piperazin-2-one dihydrochloride] | – | – | 496 ± 39.7 µM | Ki [6]: > 90 µM
5 | CC(=O)Nc1cc(F)cc(C(=O)N2CCN(C(=O)c3ccc(O[C@H]4CCNC4)c(C4CCCCC4)c3)C(C(=O)NCc3ccccc3)C2)c1 (stereo partly drawn) [Compound 28, 4-(3-Acetamido-5-fluorobenzoyl)-N-benzyl-1-(3-cyclohexyl-4-(((S)-pyrrolidin-3-yl)oxy)benzoyl) piperazine-2-carboxamide trifluoroacetate] | 660 ± 110 µM | 600 ± 89 µM | – | –
6 | NCCC(=O)NCc1cc(F)cc(OC2CCN(C(=O)c3ccc(O[C@H]4CCNC4)c(C4CCCCC4)c3)CC2)c1 [Compound 7, 3-Amino-N-(3-((1-(3-cyclohexyl-4-(pyrrolidin-3-yloxy)benzoyl)piperidin-4-yl)oxy)-5-fluorobenzyl) propanamide dihydrochloride] | – | – | 84.7 ± 11.8 µM | Ki [6]: 125 ± 13.2 µM
7 | NCc1cn(-c2cc(F)cc(C(=O)N3CCN(C(=O)c4ccc(O[C@H]5CCNC5)c(C5CCCCC5)c4)CC3)c2)nn1 [Compound 30, (S)-(4-(3-(4-(aminomethyl)-1H-1,2,3-triazol-1-yl)-5-fluorobenzoyl)piperazin-1-yl) (3-cyclohexyl-4-(pyrrolidin-3-yloxy)phenyl) methanone ditrifluoroacetate] | – | – | – | Ki [3]: 110 ± 15 µM; Ki [4]: 560 ± 71 µM
8 | NCCC(=O)Nc1cc(F)cc(OC2CCN(C(=O)c3ccc(OC4CCNC4)c(C4CCCCC4)c3)CC2)c1 (stereo not drawn) [Compound 5, 3-amino-N-(3-((1-(3-cyclohexyl-4-(pyrrolidin-3-yloxy)benzoyl)piperidin-4-yl)oxy)-5-fluorophenyl)propanamide dihydrochloride] | – | – | 24.4 ± 3.18 µM | Ki [6]: 25.9 ± 2.45 µM
9 | CCNC(=O)C1CN(C(=O)c2cc(F)cc(NC(C)=O)c2)CCN1C(=O)c1ccc(O[C@H]2CCNC2)c(C2CCCCC2)c1 (stereo partly drawn) [Compound 19, 4-(3-Acetamido-5-fluorobenzoyl)-1-(3-cyclohexyl-4-(((S)-pyrrolidin-3-yl)oxy)benzoyl)-N-ethylpiperazine-2-carboxamide trifluoroacetate] | 110 ± 16 µM | 240 ± 27 µM | – | –
10 | CC(=O)Nc1cc(F)cc(C(=O)N2CCN(C(=O)c3ccc(O[C@H]4CCNC4)c(C4CCCCC4)c3)C(C(=O)NC(C)C)C2)c1 (stereo partly drawn) [Compound 21, 4-(3-Acetamido-5-fluorobenzoyl)-1-(3-cyclohexyl-4-(((S)-pyrrolidin-3-yl)oxy)benzoyl)-N-isopropylpiperazine-2-carboxamide trifluoroacetate] | 410 ± 41 µM | 700 ± 73 µM | – | –

Further lines, with some results ahead:

Row | Ki [1] | Ki [2] | Ki [5] | Structure (SMILES) | further results
11 | 410 ± 56 µM | 770 ± 140 µM | – | CC(=O)Nc1cc(F)cc(C(=O)N2CCN(C(=O)c3ccc(O[C@H]4CCNC4)c(C4CCCCC4)c3)C(C(=O)NCC3CCCCC3)C2)c1 (stereo partly drawn) [Compound 26, 4-(3-Acetamido-5-fluorobenzoyl)-1-(3-cyclohexyl-4-(((S)-pyrrolidin-3-yl)oxy)benzoyl)-N-(cyclohexylmethyl) piperazine-2-carboxamide trifluoroacetate] | –
12 | – | – | 132 ± 9.82 µM | NCc1cn(Cc2cc(F)cc(OC3CCN(C(=O)c4ccc(O[C@H]5CCNC5)c(C5CCCCC5)c4)CC3)c2)nn1 [Compound 3, (S)-(4-(3-((4-(aminomethyl)-1H-1,2,3-triazol-1-yl)methyl)-5-fluorophenoxy)piperidin-1-yl) (3-cyclohexyl-4-(pyrrolidin-3-yloxy)phenyl) methanone dihydrochloride] | Ki [6]: 124 ± 13.4 µM
13 | 130 ± 22 µM | 580 ± 83 µM | – | CC(=O)Nc1cc(F)cc(C(=O)N2CCN(C(=O)c3ccc(O[C@H]4CCNC4)c(C4CCCCC4)c3)C(C(=O)Nc3ccccc3)C2)c1 (stereo partly drawn) [Compound 27, 4-(3-Acetamido-5-fluorobenzoyl)-1-(3-cyclohexyl-4-(((S)-pyrrolidin-3-yl)oxy)benzoyl)-N-phenylpiperazine-2-carboxamide trifluoroacetate] | –
14 | – | – | 162 ± 19.6 µM | CC(C)(CN)C(=O)NCc1cc(F)cc(OC2CCN(C(=O)c3ccc(O[C@H]4CCNC4)c(C4CCCCC4)c3)CC2)c1 [Compound 8, (S)-3-amino-N-(3-((1-(3-cyclohexyl-4-(pyrrolidin-3-yloxy)benzoyl)piperidin-4-yl)oxy)-5-fluorobenzyl)-2,2-dimethylpropanamide dihydrochloride] | Ki [6]: 162 ± 17.4 µM
15 | 73 µM | 150 ± 17 µM | – | CC(=O)Nc1cc(F)cc(C(=O)N2CCN(C(=O)c3ccc(O[C@H]4CCNC4)c(C4CCCCC4)c3)C(C(=O)N(C)C)C2)c1 (stereo partly drawn) [Compound 18, 4-(3-Acetamido-5-fluorobenzoyl)-1-(3-cyclohexyl-4-(((S)-pyrrolidin-3-yl)oxy)benzoyl)-N,N-dimethylpiperazine-2-carboxamide trifluoroacetate] | –
16 | 190 ± 18 µM | 170 ± 29 µM | – | CCN(C)C(=O)C1CN(C(=O)c2cc(F)cc(NC(C)=O)c2)CCN1C(=O)c1ccc(O[C@H]2CCNC2)c(C2CCCCC2)c1 (stereo partly drawn) [Compound 20, 4-(3-Acetamido-5-fluorobenzoyl)-1-(3-cyclohexyl-4-(((S)-pyrrolidin-3-yl)oxy)benzoyl)-N-ethyl-N-methylpiperazine-2-carboxamide trifluoroacetate] | –
17 | 700 ± 130 µM | 540 ± 71 µM | – | CC(=O)Nc1cc(F)cc(C(=O)N2CCN(C(=O)c3ccc(O[C@H]4CCNC4)c(C4CCCCC4)c3)C(C(=O)NCCC(C)C)C2)c1 (stereo partly drawn) [Compound 24, 4-(3-Acetamido-5-fluorobenzoyl)-1-(3-cyclohexyl-4-(((S)-pyrrolidin-3-yl)oxy)benzoyl)-N-isopentylpiperazine-2-carboxamide trifluoroacetate] | –

Source: US12600710B2, “Beta-catenin and b-cell lymphoma 9 (BCL9) inhibitors” (H. LEE MOFFITT CANCER CENTER AND RESEARCH INSTITUTE, INC., priority 2018, dated 2026)
